According to PubChem BioAssay (NCI):
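Following 48 hours of exposure in 96-well plates, responses at five concentrations were used to interpolate endpoints linearly. TGI is the concentration that stops growth completely.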

Key:
Experiment in all cases: growth of human tumour cells (NCI), 48 h
[1] = tested on: SF-268 CNS
[2] = tested on: A549 NSCLC
[3] = tested on: NCI-H460 lung
[4] = tested on: OVCAR-5 ovarian
[5] = tested on: SK-OV-3 ovarian
[6] = tested on: HOP-92 NSCLC
[7] = tested on: SNB-78 CNS
[8] = tested on: LOX IMVI melanoma
[9] = tested on: OVCAR-3 ovarian
[10] = tested on: SF-539 CNS
[11] = tested on: HCT-116 colon
[12] = tested on: HCT-15 colon
[13] = tested on: HT29 colon
[14] = tested on: 786-0 renal
[15] = tested on: SNB-19 CNS
[16] = tested on: TK-10 renal
[17] = tested on: SF-295 CNS
[18] = tested on: UACC-62 melanoma
[19] = tested on: COLO 205 colon
[20] = tested on: RPMI-8226 leukemia
[21] = tested on: KM20L2 colon
[22] = tested on: NCI-H522 lung
[23] = tested on: CCRF-CEM leukemia
[24] = tested on: K-562 leukemia
[25] = tested on: NCI-H23 lung
[26] = tested on: HCC-2998 colon
[27] = tested on: HOP-62 NSCLC
[28] = tested on: DLD-1 colon
[29] = tested on: SW-620 colon
[30] = tested on: MOLT-4 leukemia
[31] = tested on: SNB-75 CNS
[32] = tested on: SN12C renal
[33] = tested on: DMS 273 small cell lung
[34] = tested on: SK-MEL-5 melanoma
[35] = tested on: SR leukemia
[36] = tested on: EKVX NSCLC
[37] = tested on: UO-31 renal
[38] = tested on: M14 melanoma
[39] = tested on: XF 498 CNS
[40] = tested on: LXFL 529 NSCLC
[41] = tested on: NCI-H226 lung
[42] = tested on: RXF 393 renal
[43] = tested on: KM12 colon
[44] = tested on: MALME-3M melanoma
[45] = tested on: DMS 114 small cell lung
[46] = tested on: M19-MEL melanoma
[47] = tested on: A498 renal
[48] = tested on: U251 CNS
[49] = tested on: CAKI-1 renal
[50] = tested on: HL-60(TB) leukemia
[51] = tested on: RXF-631 renal
[52] = tested on: UACC-257 melanoma
[53] = tested on: OVCAR-8 ovarian
[54] = tested on: IGROV1 ovarian
[55] = tested on: OVCAR-4 ovarian
[56] = tested on: SK-MEL-28 melanoma
[57] = tested on: ACHN renal
[58] = tested on: SK-MEL-2 melanoma

N#CC(C#N)=C1SCC(=O)CS1
TGI [1]: > 100 µM
TGI [2]: > 100 µM
TGI [3]: > 100 µM
TGI [4]: > 100 µM
TGI [5]: > 100 µM
TGI [6]: > 100 µM
TGI [7]: > 100 µM
TGI [8]: > 100 µM
TGI [9]: > 100 µM
TGI [10]: > 100 µM
TGI [11]: > 100 µM
TGI [12]: > 100 µM
TGI [13]: > 100 µM
TGI [14]: > 100 µM
TGI [15]: > 100 µM
TGI [16]: > 100 µM
TGI [17]: > 100 µM
TGI [18]: > 100 µM
TGI [19]: > 100 µM
TGI [20]: > 100 µM
TGI [21]: > 100 µM
TGI [22]: > 100 µM
TGI [23]: > 100 µM
TGI [24]: > 100 µM
TGI [25]: > 100 µM
TGI [26]: > 100 µM
TGI [27]: > 100 µM
TGI [28]: > 100 µM
TGI [29]: > 100 µM
TGI [30]: > 100 µM
TGI [31]: > 100 µM
TGI [32]: > 100 µM
TGI [33]: > 100 µM
TGI [34]: > 100 µM
TGI [35]: > 100 µM
TGI [36]: > 100 µM
TGI [37]: > 100 µM
TGI [38]: > 100 µM
TGI [39]: > 100 µM
TGI [40]: > 100 µM
TGI [41]: > 100 µM
TGI [42]: > 100 µM
TGI [43]: > 100 µM
TGI [44]: > 100 µM
TGI [45]: > 100 µM
TGI [46]: > 100 µM
TGI [47]: > 100 µM
TGI [48]: > 100 µM
TGI [49]: > 100 µM
TGI [50]: > 100 µM
TGI [51]: > 100 µM
TGI [52]: > 100 µM
TGI [53]: > 100 µM
TGI [54]: > 100 µM
TGI [55]: > 100 µM

Cn1c(=O)c(C(=O)NC(=O)OCc2ccccc2)cn(CCSCCOC(=O)NCCCCCCNC(=O)OCCSCCn2cc(C(=O)NC(=O)OCc3ccccc3)c(=O)n(C)c2=O)c1=O
TGI [1]: > 100 µM
TGI [2]: > 100 µM
TGI [56]: > 100 µM
TGI [3]: > 100 µM
TGI [4]: > 100 µM
TGI [6]: 87.5 µM
TGI [7]: > 100 µM
TGI [8]: > 100 µM
TGI [10]: > 100 µM
TGI [11]: > 100 µM
TGI [12]: > 100 µM
TGI [14]: > 100 µM
TGI [15]: > 100 µM
TGI [16]: > 100 µM
TGI [18]: > 100 µM
TGI [19]: > 100 µM
TGI [20]: > 100 µM
TGI [21]: > 100 µM
TGI [22]: > 100 µM
TGI [23]: > 100 µM
TGI [57]: > 100 µM
TGI [24]: > 100 µM
TGI [25]: > 100 µM
TGI [26]: > 100 µM
TGI [27]: > 100 µM
TGI [28]: > 100 µM
TGI [29]: > 100 µM
TGI [30]: > 100 µM
TGI [31]: 48.9 µM
TGI [32]: > 100 µM
TGI [33]: > 100 µM
TGI [34]: > 100 µM
TGI [36]: > 100 µM
TGI [37]: > 100 µM
TGI [38]: > 100 µM
TGI [39]: 57.6 µM
TGI [40]: > 100 µM
TGI [41]: > 100 µM
TGI [42]: > 100 µM
TGI [44]: > 100 µM
TGI [45]: > 100 µM
TGI [46]: > 100 µM
TGI [47]: > 100 µM
TGI [48]: > 100 µM
TGI [58]: > 100 µM
TGI [50]: > 100 µM
TGI [51]: > 100 µM
TGI [53]: > 100 µM
TGI [54]: > 100 µM
TGI [55]: > 100 µM
